# Source: patent publication US12365698B2, “Application of boron dipyrromethene derivatives in anti-tumor and anti-bacterial therapy” (biolitec Unternehmensbeteiligungs III AG, priority 2019, dated 2025)
# Columns and labels:
# [1] = tested on: Staphylococcus aureus DSM 11729; test: Antibacterial testing (CFU/ml count, with and without white light); format: cell-based; conditions: for antibacterial activity in the presence of complex media (serum addition): PBS supplemented with 10% horse blood serum; for antibacterial activity in the presence of complex media (serum addition) / antibacterial activity of compounds which carry just one bromine atom: bacterium not given; for antibacterial activity against S. aureus in the absence of light: highest tested concentration of 100 μmol
# Experimental: The organisms studied were Staphylococcus aureus DSM 11729, Gram-positive and Pseudomonas aeruginosa DSM 1117, Gram-negative.
# Cultures cells are suspended in sterile phosphate-buffered saline (PBS) or sterile PBS supplemented with 10% sterile horse blood serum. The bacterial suspensions are placed into sterile black well plates with clear bottoms. Concentrations of photosensitizer used in the study were as follows: 100 μM, 10 μM and 1 μM.
# After an incubation time period of 30 minutes, the samples are exposed to white light, with a power density and irradiation time resulting in an energy fluency of about 100 J/cm^2. Control plates contained no photosensitizer and are not exposed to laser light. The control samples for dark toxicity are only exposed to photosensitizer without any illumination.
# After irradiation, the samples are removed and suspended again in the culture media. The numbers of colony-forming units (CFU/ml) are enumerated after an adequate incubation time period.
# [2] = tested on: HT29 tumor cell line and other cell lines; test: Cell tests: dark toxicity and phototoxicity, XTT cell viability assay; format: cell-based, human, mouse; conditions: cell tests of example 3; 2 or 10 μM
# Experimental: The photosensitizing activity was determined in the following cell lines: • HT29 (human colon adenocarcinoma cell line) • L929 (mouse fibroblast cell line) • A431 (human epidermoid carcinoma cell line) • A253 (submaxillary salivary gland, epidermoid cell line) • CAL-27 (human tongue squamous cell carcinoma cell line) • J774A.1 (Mouse BALB/c monocyte macrophage).
# The cell lines were grown in DMEM (c.c.pro GmbH) supplemented with 10% heat-inactivated fetal calf serum (FCS, c.c.pro GmbH), 1% penicillin (10000 IU) and streptomycin (10000 μg/ml, c.c.pro GmbH). Cells were kept as a monolayer culture in a humidified incubator (5% CO2 in air at 37° C.).
# A photosensitizer stock solution (2 mM) was performed in DMSO and was kept in the dark at 4° C. Further dilution was performed in DMEM medium without phenol red supplemented with 10% FCS to reach a final photosensitizer concentration of 2 or 10 μM, respectively.
# After seeding the cells in micro plates, the cells were incubated with fresh medium (DMEM without phenol red) containing 10% FCS with 2 or 10 μM of the photosensitizer for 24 h before light exposure. […]
# The cell viability was assessed by the XTT assay. […]
# The absorbance of the samples was measured with a microplate reader (infinite 200, Tecan Group Ltd.) at a wavelength of 490 nm.
Molecule,specific activity against bacteria ([1]; compared with toxicity in cells),toxicity in cells [2],antibacterial activity in the presence of complex media (serum addition) [1],antibacterial activity against S. aureus in the absence of light [1],antibacterial activity of compounds which carry just one bromine atom [1]
"1,3,5,7-Tetramethyl-2,6-dibromo-8(4-propargylamino-3-nitrophenyl)-boron dipyrromethene [Example 4.5]",specifically active against bacteria,low toxicity,,,
"1,3,5,7-Tetramethyl-2,6-dibromo-8-(4-N-hydroxy-ethylamino-3-nitrophenyl)-boron dipyrromethene [Example 4.2]",,,antibacterial activity is also observed,high antibacterial activity,
"2-Bromo-8-(4-butyloxy-2,3,5,6-tetrafluorophenyl)-boron dipyrromethene [Example 4.11]",,,,,strong antibacterial activity
"C#CCNc1ccc(C2=C3C=CC=[N+]3[B-](F)(F)n3cc(Br)cc32)cc1[N+](=O)[O-] [Example 4.1, 2-Bromo-8-(4-N-propargylamino-3-nitrophenyl)-boron dipyrromethene]",,,antibacterial activity is also observed,high antibacterial activity,strong antibacterial activity
